The values that follow come from patent US20050181485A1, “Cellulose digesting enzyme gene and utilization of the gene” (priority 2002, published 2005).

The structures appear in SMILES notation.

The test system of one assay is cellobiose dehydrogenase. It is filed as biochemical, Coriolus hirsutus.
Conditions: not given
In the case of `O=C(O)CN(CCN(CC(=O)O)CC(=O)O)CC(=O)O` [EDTA], the Relative activity amounted to 45% and the “inhibition of the enzyme” value is recorded as “weakly inhibited”.

Take `[N-]=[N+]=[N-].[Na+]` [NaN3, sodium azide]: the Relative activity stood at 46% and the “inhibition of the enzyme” value is “weakly inhibited”.

The assay is the same for the next values; noted with them: 1 mM.
`[Cl][Hg][Cl]` [HgCl2]: the “inhibition of the enzyme” value is listed as “strongly inhibited”.

Take `CCCCCCCCCCCCOS(=O)(=O)[O-].[Na+]` [SDS]: the “inhibition of the enzyme” value is given as “strongly inhibited”.

In turn, `[Cl-].[Cl-].[Co+2]` [CoCl2] had a Relative activity of 53%.

Staying with this assay, now noted: 1 mM; incubation at 4° C. overnight.
As for `[Cl][Al]([Cl])[Cl]` [AlCl2], the Relative activity is 23%.

Compound `[Ca+2].[Cl-].[Cl-]` [CaCl2] gave a Relative activity of 65%.

For `[Cl][Hg][Cl]` [HgCl2], the Relative activity was 0%.

`[Cl][Ni][Cl]` [NiCl2]: the Relative activity was found to be 60%.

Turning to `CCCCCCCCCCCCOS(=O)(=O)[O-].[Na+]` [SDS], the Relative activity is on record as 0%.

`O=S(=O)([O-])[O-].[Cu+2]` [CuSO4] returned a Relative activity of 82%.

As for `[Cl-].[Cl-].[Mg+2]` [MgCl2], the Relative activity stood at 64%.

Take `O=S(=O)([O-])[O-].[Fe+2]` [FeSO4]: the Relative activity was determined as 0%.

In turn, `[Cl-].[Li+]` [LiCl2] yielded a Relative activity of 45%.

For `[Cl-].[Cl-].[Zn+2]` [ZnCl2], the Relative activity is recorded as 32%.

For `[Cl][Cu][Cl]` [CuCl2], the Relative activity is reported as 53%.

Compound `[Ba+2].[Cl-].[Cl-]` [BaCl2] returned a Relative activity of 71%.

Turning to `O=S(=O)([O-])[O-].[Zn+2]` [ZnSO4], the Relative activity was 72%.

The compound `[Cl][Mn][Cl]` [MnCl2] had a Relative activity of 35%.
